# According to PubChem BioAssay AID383 (SGCOxCompounds, 2006):
# Target: Dual specificity protein kinase CLK3 (Homo sapiens) (UniProt P49761)
# Experiment: CLK3 binders by thermal stabilization, biophysical, thermal shift, recombinant protein (AID 383)
# Conditions: at 10 µM, hits give high values
# [1] = protein 2 µM, buffer 10 mM HEPES, pH 7.5, NaCl 150 mM
# [2] = protein 1.5 µM, buffer 10 mM HEPES, pH 7.5, NaCl 150 mM, with 50 µM L-Arg/L-Glu (1:1)
# [3] = protein 2 µM, buffer 10 mM HEPES, NaCl 150 mM, with 50 mM Arg/Glu
# [4] = protein 2 µM, buffer 50 mM HEPES, pH 7.5, NaCl 500 mM
# [5] = protein 1.8 µM, buffer 10 mM HEPES, pH 7.5, NaCl 150 mM, with 50 µM L-Arg/L-Glu (1:1)
# [6] = protein 1.7 µM, buffer 10 mM HEPES, pH 7.5, NaCl 150 mM, with 50 µM L-Arg/L-Glu (1:1)
# Dual specificity protein kinase CLK3 (Homo sapiens), sequence (P49761 whole entry, looked up): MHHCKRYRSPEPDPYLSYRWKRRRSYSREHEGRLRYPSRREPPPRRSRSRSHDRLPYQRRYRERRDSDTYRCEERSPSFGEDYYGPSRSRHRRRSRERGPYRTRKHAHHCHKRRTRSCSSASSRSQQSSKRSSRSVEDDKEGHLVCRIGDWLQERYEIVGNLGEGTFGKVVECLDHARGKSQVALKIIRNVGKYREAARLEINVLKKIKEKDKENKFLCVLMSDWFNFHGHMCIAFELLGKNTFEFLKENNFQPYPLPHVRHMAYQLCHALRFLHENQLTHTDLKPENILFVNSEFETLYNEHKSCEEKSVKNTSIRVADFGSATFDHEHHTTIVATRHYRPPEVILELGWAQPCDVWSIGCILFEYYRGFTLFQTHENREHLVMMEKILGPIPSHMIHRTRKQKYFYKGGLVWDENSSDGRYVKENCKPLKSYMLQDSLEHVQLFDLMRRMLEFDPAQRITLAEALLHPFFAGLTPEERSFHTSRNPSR
compound,measurement,setting,value
CCC(CO)Nc1ccc2ncc(-c3ccc(F)c(Cl)c3)n2n1 (stereo not drawn),Tm shift,[1],3.6 Celsius
O=Nc1c(-c2c(O)[nH]c3ccc(I)cc23)[nH]c2ccccc12,Tm shift,[2],4.5 Celsius
Nc1nc(Nc2ccc(S(N)(=O)=O)cc2)nn1C(=S)Nc1c(F)cccc1F,Tm shift,[3],15.1 Celsius
CCN1/C(=C/C(C)=O)Sc2ccc(OC)cc21,Tm shift,[4],3.16 Celsius
COc1cccc(-c2cnn3ccc(Nc4cccc(Cl)c4)nc23)c1,Tm shift,[1],4.61 Celsius
CC(C)n1cnc2c(Nc3cccc(Cl)c3)nc(NCCO)nc21,Tm shift,[5],4.6 Celsius
same,Tm shift,[3],3.76 Celsius
N=C(N)SCCCn1cc(C2=C(c3c[nH]c4ccccc34)C(=O)NC2=O)c2ccccc21,Tm shift,[3],3.37 Celsius
CC1N=C2SC=CN2C(=O)C1CCN1CCC(=C(c2ccccc2)c2ccc(F)cc2)CC1 (stereo not drawn),Tm shift,[5],3.8 Celsius
CCC(CO)Nc1ccc2ncc(-c3cccc(C(C)=O)c3)n2n1 (stereo not drawn),Tm shift,[1],3.42 Celsius
Clc1cccc(Nc2ccn3ncc(-c4ccc5c(c4)OCO5)c3n2)c1,Tm shift,[1],6.07 Celsius
COc1cc(/C=C/C(=O)CC(=O)/C=C/c2ccc(O)c(OC)c2)ccc1O,Tm shift,[5],5.3 Celsius
O=C(c1ccc(Nc2nccc(-c3cc4ccccc4s3)n2)cc1)N1CCC(N2CCCC2)CC1,Tm shift,[2],6.3 Celsius
Cc1[nH]c(/C=C2\C(=O)Nc3ccc(S(=O)(=O)N(C)c4cccc(Cl)c4)cc32)c(C)c1C(=O)N1CCN(C)CC1,Tm shift,[2],3.7 Celsius
OCC(O)CCO/N=C1/C(c2c(O)[nH]c3ccccc23)=Nc2ccccc21 (stereo not drawn),Tm shift,[2],4 Celsius
CCC(CO)Nc1ccc2ncc(-c3cccc(OC(F)(F)F)c3)n2n1 (stereo not drawn),Tm shift,[1],3.66 Celsius
Nc1ncnc2c1c(I)cn2[C@@H]1O[C@H](CO)C(O)C1O (stereo partly drawn),Tm shift,[5],7.5 Celsius
same,Tm shift,[3],7.25 Celsius
O=Nc1c(-c2c(O)[nH]c3ccc(S(O)(O)O)cc23)[nH]c2ccccc12,Tm shift,[2],4.7 Celsius
O=c1c(O)c(-c2ccc(O)c(O)c2)oc2cc(O)cc(O)c12,Tm shift,[3],4.2 Celsius
same,Tm shift,[4],3.12 Celsius
O=c1c(O)c(-c2cc(O)c(O)c(O)c2)oc2cc(O)cc(O)c12,Tm shift,[4],3.25 Celsius
Cc1cc(Nc2nc(-c3ccccc3)nc3ccccc23)n[nH]1,Tm shift,[2],4.1 Celsius
Cc1c2ccncc2c(C)c2c1[nH]c1ccccc12,Tm shift,[5],4.2 Celsius
N#Cc1ccc(-c2cnc3ccc(NC4CCOCC4)nn23)cc1,Tm shift,[1],3.76 Celsius
Cn1cc(/C=C2\C(=O)Nc3ccc(S(N)(=O)=O)cc32)c2ccccc21,Tm shift,[5],3.2 Celsius
CC(C)[C@@H](CO)Nc1ccc2ncc(-c3ccc(C#N)cc3)n2n1,Tm shift,[3],4.58 Celsius
NC1=N/C(=C2\CCNC(=O)c3[nH]ccc32)C(=O)N1,Tm shift,[3],4.35 Celsius
O=C1NC(=O)C(c2c[nH]c3ccccc23)=C1c1c[nH]c2ccccc12,Tm shift,[2],3.2 Celsius
NC1=N/C(=C2/CCNC(=O)c3[nH]c(Br)cc32)C(=O)N1,Tm shift,[5],7.2 Celsius
same,Tm shift,[3],8.87 Celsius
Nc1ccc(-c2cnn3ccc(Nc4cccc(Cl)c4)nc23)cc1,Tm shift,[1],3.58 Celsius
N#C/C(=C1\Nc2ccccc2S1)c1ccnc(NCCc2cccnc2)n1,Tm shift,[2],4.9 Celsius
CCC(CO)Nc1ccc2ncc(-c3ccc(O)cc3)n2n1 (stereo not drawn),Tm shift,[3],4.43 Celsius
CN(C)S(O)(O)c1ccc2c(c1)/C(=C/c1cc3c([nH]1)CCCC3)C(=O)N2,Tm shift,[5],4.1 Celsius
O=c1cc(-c2ccc(O)cc2)oc2cc(O)cc(O)c12,Tm shift,[5],3.1 Celsius
CC(C)[C@@H](CO)Nc1ccc2ncc(-c3cccc(OC(F)(F)F)c3)n2n1,Tm shift,[1],4.02 Celsius
COc1ccc(Nc2nc(N)c(C(=O)c3ccc(OC)cc3)s2)cc1,Tm shift,[6],4.3 Celsius
O=C1C(=O)C(c2cc(O)c(O)c(O)c2)Oc2cc(O)cc(O)c21 (stereo not drawn),Tm shift,[4],3.08 Celsius
CCC(CO)Nc1ccc2ncc(-c3ccc(OC)nc3)n2n1 (stereo not drawn),Tm shift,[1],4.48 Celsius
CN(C)CCCn1cc(C2=C(c3c[nH]c4ccccc34)C(=O)NC2=O)c2ccccc21,Tm shift,[5],3.5 Celsius
Nc1nc(Nc2cccc(Cl)c2)sc1C(=O)c1ccc(F)cc1,Tm shift,[6],3.4 Celsius
Nc1nc(Nc2ccc(F)cc2)sc1C(=O)c1ccccc1,Tm shift,[6],3.2 Celsius
NCCCn1cc(C2=C(c3c[nH]c4ccccc34)C(=O)NC2=O)c2ccccc21,Tm shift,[4],3.18 Celsius
O=Nc1c(-c2c(O)[nH]c3ccccc23)[nH]c2ccccc12,Tm shift,[5],4.6 Celsius
NC(=O)c1ccc(-c2nc(-c3ccc4c(c3)OCCO4)c(-c3ccccn3)[nH]2)cc1,Tm shift,[5],4.8 Celsius
O=c1cc(-c2ccc(O)c(O)c2)oc2cc(O)cc(O)c12,Tm shift,[4],4.28 Celsius
COc1ccc(Nc2nc(N)c(C(=O)c3ccc(Cl)cc3)s2)cc1,Tm shift,[6],3.7 Celsius
CC(C)[C@@H](CO)Nc1ccc2ncc(-c3cccc(O)c3)n2n1,Tm shift,[1],4.02 Celsius
CC(=O)c1cccc(-c2cnc3ccc(N[C@H](CO)C(C)C)nn23)c1,Tm shift,[3],3.77 Celsius
CCC(CO)Nc1ccc2ncc(-c3ccc(C(=O)O)cc3)n2n1 (stereo not drawn),Tm shift,[3],3.99 Celsius
CC(=O)Nc1cccc(-c2cnc3ccc(N[C@H](CO)C(C)C)nn23)c1,Tm shift,[3],4.32 Celsius
CC(C)C(CO)Nc1nc(Nc2cccc(Cl)c2)c2ncn(C(C)C)c2n1 (stereo not drawn),Tm shift,[3],3.88 Celsius
